Earlier results as cited in US6432971B1, “Method of prevention of prostatic carcinoma with 17β-N-monosubstituted-carbamoyl-4-aza-5α-androst-1-en-3-ones” (Merck & Co., Inc., priority 1991, dated 2002).

Columns and labels:
[1] = tested on: female hamster flank organ; conditions: for effect on flank organ response elicited by 5α-dihydrotestosterone: concomitant administration with topical 5α-dihydrotestosterone; for effect on flank organ response elicited by testosterone: concomitant administration with topical testosterone
[2] = tested on: testosterone-5α-reductase; conditions: in vitro; Voigt and Hsia, Endocrinology 92, 1216 (1973)

SMILES	effect on flank organ response elicited by 5α-dihydrotestosterone [1]	effect on flank organ response elicited by testosterone [1]	inhibition of testosterone-5α-reductase [2]
C[C@]12CC[C@H]3[C@@H](CCC4=CC(=O)CC[C@@]43C)[C@@H]1CC[C@@H]2C(=O)O [4-androsten-3-one-17β-carboxylic acid]	did not inhibit the response elicited by 5α-dihydrotestosterone	inhibited the response elicited by testosterone	active inhibitors of testosterone-5α-reductase in vitro
COC(=O)[C@H]1CC[C@H]2[C@@H]3CCC4=CC(=O)CC[C@]4(C)[C@H]3CC[C@]12C [methyl 4-androsten-3-one-17β-carboxylate]	did not inhibit the response elicited by 5α-dihydrotestosterone	inhibited the response elicited by testosterone	active inhibitors of testosterone-5α-reductase in vitro
